Assay results taken from patent publication US12324790B1, “Preparation method and application of micelle preparation containing thymol and derivative thereof” (Nanjing Mucosa Tech Co., Ltd., priority 2024, dated 2025).

How the values were obtained:
[1] = States of preparations observed with the naked eyes (solubilization); assay type: physicochemical; conditions: water, without TPGS, apparent concentration 2 mg/ml
Description: A surfactant TPGS was selected for solubilization. Preparation method: 40 mg of THY was weighed and placed in a beaker, added with a certain amount of water and TPGS and magnetically stirred at room temperature for 24 h. In micelle preparations 2-8, mass ratios of THY to TPGS were 2:1, 1:1, 1:2.5, 1:5, 1:7, 1:10, 1:15, and 1:20, respectively.
40 mg of THY-Tos was weighed and placed in a beaker, and added with a certain amount of water and TPGS. For Preparations 2 to 5, the mass ratios of THY-Tos to TPGS were 1:1, 1:7, 1:10, and 1:15, respectively. The above micelle preparations were magnetically stirred for 24 h to obtain the final products.

oral ulcer rats = test: Pharmacodynamic study in NaOH-induced oral ulcer rats; set-up: species or system SD rats; conditions: rat, in vivo
Description: After 3 days of adaptive feeding, each rat was anesthetized and fixed on an operating table, the labial mucosa of the SD rat was dried with sterile cotton balls, and further sterile cotton balls were used for moisture isolation. A 3 mm×3 mm NaOH crystal was placed on the labial mucosa, and then removed after being maintained for 30 s. A treated area was wiped with sterile cotton balls containing normal saline to remove residual NaOH. […]
An area method was used to macroscopically evaluate the oral ulcer area, a maximum transverse diameter and longitudinal diameter of the ulcer were measured by vernier calipers, which were marked as d1 and d2, respectively, and a ulcer area was S=π×d1×d2×¼ (π=3.14). […]
The analysis was performed by t-test, and normally distributed quantitative data were expressed as mean±standard deviation (X, ±S), one-way ANOVA and LSD methods were used for pairwise comparison, and the Wilcoxon rank-sum test was used when the ANOVA conditions were not met. […]

Cc1ccc(C(C)C)c(OC(=O)CCC(=O)Oc2c(C)c(C)c3c(c2C)CC[C@@](C)(CCC[C@H](C)CCC[C@H](C)CCCC(C)C)O3)c1 [THY-Tos]
solubility (in words) [1]: poor solubility
efficacy on an animal-based oral ulcer model compared with THY in combination with vitamin E (oral ulcer rats): not significantly different
